Results taken from PMC9791652 (Journal of Medicinal Chemistry, 2022).
≈ marks a conversion by molar mass, not a printed value. Where two headings read alike, the source gives them in different places.

Experiments:
H37Rv = format: cell-based, Mycobacterium tuberculosis
[1] = tested on: streptomycin starved 18b nonreplicating Mtb (ss18b-lux); format: cell-based, Mycobacterium tuberculosis; conditions: for drop in bacterial counts (cfu) of ss18b-lux: 7 days of exposure; for bactericidal activity against nonreplicating ss18b-lux by cfu counting: 7 days of antibiotic exposure
[2] = tested on: Mtb H37Rv NADH/NAD+ ratio; experiment: Impact of TriSLa exposure on Mtb NADH and NAD+ levels; format: cell-based, Mycobacterium tuberculosis
Mtb H37Rv ATP levels = experiment: Impact of TriSLa exposure on Mtb ATP levels; format: cell-based, Mycobacterium tuberculosis; conditions: 24 h exposure
[3] = tested on: Escherichia coliΔtolC (BW25113 ΔtolC); experiment: organism not typed; format: cell-based
[4] = tested on: M. marinum (expressing Wasabi) infected zebrafish larvae; format: in vivo; conditions: for lowest dose significantly prolonging survival of infected zebrafish: 4-day exposure in water, refreshed daily, 1 to 5 dpi
[5] = tested on: noninfected zebrafish larvae; conditions: data not shown
physchem = conditions: pH 7.4
[6] = mouse liver microsomes

SMILES | ss18b-lux luminescence signal [1] | bactericidal activity against nonreplicating ss18b-lux by cfu counting [1] | bacterial ATP concentrations (Mtb H37Rv ATP levels) | MIC [3] | lowest dose significantly prolonging survival of infected zebrafish [4] | toxicity in noninfected zebrafish larvae [5] | other results
COc1nc2ccc(Br)cc2cc1[C@@H](c1ccccc1)[C@@](O)(CCN(C)C)c1cccc2ccccc12 [bedaquiline] | time-dependent decrease in luminescence | bactericidal | concentration-dependent shutdown in bacterial ATP concentrations | – | – | – | bactericidal activity by cfu at 1× and 2× MIC (H37Rv; H37Rv, 1× and 2× MIC (250 and 500 nM), 2 week exposure period): largely bacteriostatic; drop in bacterial counts (cfu) of ss18b-lux ([1]; 1 μM, stated as similar to 11 and 12 at 4.8 μM): 1–2 log; Mtb NADH/NAD+ ratio relative to untreated bacteria [2]: increase in the NADH/NAD^+ ratio
CC(C)[C@H]1CO[C@]23CCN(Cc4ccc(C(F)(F)F)cc4)C[C@H]2CCC(=O)N13 [Compound 11, (3S,7aR,11aR)-3-Isopropyl-9-[[4-(trifluoromethyl)phenyl]methyl]-2,3,6,7,7a,8,10,11-octahydrooxazolo[2,3-j][1,6]naphthyridin-5-one] | time-dependent decrease in luminescence | concentration-dependent killing | concentration-dependent shutdown in bacterial ATP concentrations | 100 µM (≈ 39.6 µg/mL) | 0.3 µM | did not interfere with larval development or show any toxicity | bactericidal activity by cfu at 1× MIC (H37Rv): bacteriostatic; drop in cfu after 1 week (H37Rv): ~0.8 log; drop in cfu after 2 weeks (H37Rv): ~2.0 log; drop in bacterial counts (cfu) of ss18b-lux ([1]; 4.8 μM): 1–2 log; logD (physchem): 3.9
NNC(=O)c1ccncc1 [isoniazid] | increase in luminescence | no significant bactericidal activity | – | – | – | – | –
CC(C)[C@H]1CO[C@]23CCN(Cc4ccc(OC(F)(F)F)cc4)C[C@H]2CCC(=O)N13 [Compound 12, (3S,7aR,11aR)-3-Isopropyl-9-[[4-(trifluoromethoxy)phenyl]methyl]-2,3,6,7,7a,8,10,11-octahydrooxazolo[2,3-j][1,6]naphthyridin-5-one] | time-dependent decrease in luminescence | concentration-dependent killing | concentration-dependent shutdown in bacterial ATP concentrations | 100 µM (≈ 41.2 µg/mL) | 0.3 µM | did not interfere with larval development or show any toxicity | bactericidal activity by cfu at 1× MIC (H37Rv): bacteriostatic; drop in cfu after 1 week (H37Rv): ~0.8 log; drop in cfu after 2 weeks (H37Rv): ~2.0 log; drop in bacterial counts (cfu) of ss18b-lux ([1]; 4.8 μM): 1–2 log; bacterial load (fluorescence pixel count) in infected zebrafish ([4]; 0.5 μg/mL ([…]), 2–4 days of exposure): bacteriostatic; bacterial load (fluorescence pixel count) in infected zebrafish ([4]; 2 μg/mL (4.8 μM), between 2 and 4 days of exposure): significant decrease in the bacterial burden; infection foci in fluorescence images ([4]; 0.25 to 2 μg/mL (0.6–4.8 μM), 2 or 4-day treatment): fewer and less intense infection foci; logD (physchem): 3.4
CO[C@H]1/C=C/O[C@@]2(C)Oc3c(C)c(O)c4c(O)c(c(/C=N/N5CCN(C)CC5)c(O)c4c3C2=O)NC(=O)/C(C)=C\C=C\[C@H](C)[C@H](O)[C@@H](C)[C@@H](O)[C@@H](C)[C@H](OC(C)=O)[C@@H]1C [rifampicin] | time-dependent decrease in luminescence | bactericidal | – | – | – | – | drop in bacterial counts (cfu) of ss18b-lux ([1]; 0.6 μM, stated as similar to 11 and 12 at 4.8 μM): 1–2 log; Mtb NADH/NAD+ ratio relative to untreated bacteria [2]: decrease in NADH/NAD^+
CC(C)[C@H]1CO[C@]23CCN(Cc4ccc(C(F)(F)F)nc4)C[C@H]2CCC(=O)N13 [Compound 13, (3S,7aR,11aR)-3-Isopropyl-9-[[6-(trifluoromethyl)-3-pyridyl]methyl]-2,3,6,7,7a,8,10,11-octahydrooxazolo[2,3-j][1,6]naphthyridin-5-one] | – | – | – | – | 1.2 µM | did not interfere with larval development or show any toxicity | –
CC(C)[C@H]1CO[C@]23CCN(Cc4ccccc4)C[C@H]2CCC(=O)N13 [Compound 1, (3S,7aR,11aR)-9-Benzyl-3-isopropyl-2,3,6,7,7a,8,10,11-octahydrooxazolo[2,3-j][1,6]naphthyridin-5-one] | – | – | – | > 100 µM | – | – | metabolic stability (in words) [6]: high clearance
